According to patent publication US7183306B2, “Pyrazole derivatives” (Astellas Pharma Inc., priority 2002, dated 2007):

What was measured:
COX-I = target: T1, COX-I (Homo sapiens, UniProt P23219); test: Whole blood assay for COX-I (TXB2 production); type: cell-based
T1 construct: Fresh blood was collected by syringe without anticoagulants from volunteers with consent; from tissue; host or cells: fresh human whole blood from volunteers, allowed to clot
Experimental: [B] Inhibiting Activity Against COX-I and COX-II (Whole Blood Assay) (i) Test Metho: Whole Blood Assay for COX-I
Fresh blood was collected by syringe without anticoagulants from volunteers with consent. The subjects had no apparent inflammatory conditions and had not taken any medication for at least 7 days prior to blood collection.
500 μl Aliquots of human whole blood were immediately incubated with 2 μl of either dimethyl sulfoxide vehicle or a test compound at final concentrations for 1 hr at 37° C. to allow the blood to clot. Appropriate treatments (no incubation) were used as blanks. At the end of the incubation, 5 μl of 250 mM Indomethacin was added to stop the reaction. The blood was centrifuged at 6000×g for 5 min at 4° C. to obtain serum. A 100 μl aliquot of serum was mixed with 400 μl methanol for protein precipitation. The supernatant was obtained by centrifuging at 6000×g for 5 min at 4° C. and was assayed for TXB2 using an enzyme immunoassay kit according to the manufacturer's procedure. For a test compound, the results were expressed as percent inhibition of thromboxane B2(TXB2) production relative to control incubations containing dimethyl sulfoxide vehicle.
The data were analyzed by that a test compound at the indicated concentrations was changed log value and was applied simple linear regression. IC50 value was calculated by least squares method.

COX-II = target: T2, COX-II (Homo sapiens, UniProt P35354); test: Whole blood assay for COX-II (LPS-induced PGE2 production); type: cell-based; settings: LPS 24 hrs at 37° C., inhibition of PGE2 production
T2 construct: incubation of the blood with 10 μl of 5 mg/ml lipopolysaccharide for 24 hrs at 37° C. for induction of COX-II; from tissue; host or cells: heparinized fresh human whole blood from volunteers, LPS-stimulated
T2 sequence (P35354 18-604): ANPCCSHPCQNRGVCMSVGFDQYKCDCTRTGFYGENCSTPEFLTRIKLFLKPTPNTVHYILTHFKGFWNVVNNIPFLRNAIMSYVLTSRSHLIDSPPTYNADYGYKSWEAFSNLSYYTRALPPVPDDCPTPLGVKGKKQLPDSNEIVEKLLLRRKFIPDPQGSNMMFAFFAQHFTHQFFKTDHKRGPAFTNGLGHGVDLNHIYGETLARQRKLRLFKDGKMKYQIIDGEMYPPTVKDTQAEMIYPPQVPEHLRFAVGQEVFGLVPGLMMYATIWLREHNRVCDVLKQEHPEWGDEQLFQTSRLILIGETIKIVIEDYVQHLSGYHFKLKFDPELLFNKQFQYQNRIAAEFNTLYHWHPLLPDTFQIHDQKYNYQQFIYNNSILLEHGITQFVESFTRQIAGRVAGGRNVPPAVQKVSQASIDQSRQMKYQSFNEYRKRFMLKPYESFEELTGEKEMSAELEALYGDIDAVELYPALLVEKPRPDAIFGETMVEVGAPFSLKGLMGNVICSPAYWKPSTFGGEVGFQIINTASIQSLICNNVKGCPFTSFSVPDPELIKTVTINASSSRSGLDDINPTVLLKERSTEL
Experimental: Whole Blood Assay for COX-II
Fresh blood was collected in heparinized tubes by syringe from volunteers with consent. The subjects had no apparent inflammatory conditions and had not taken any medication for at least 7 days prior to blood collection.
500 μl aliquots of human whole blood were incubated with either 2 μl dimethyl sulfoxide vehicle or 2 μl of a test compound at final concentrations for 15 min at 37° C. This was followed by incubation of the blood with 10 μl of 5 mg/ml lipopolysaccharide for 24 hrs at 37° C. for induction of COX-II. Appropriate PBS treatments (no LPS) were used as blanks. At the end of the incubation, the blood was centrifuged at 6000×g for 5 min at 4° C. to obtain plasma. A 100 μl aliquot of plasma was mixed with 400 μl methanol for protein precipitation. The supernatant was obtained by centrifuging at 6000×g for 5 min at 4° C. and was assayed for prostaglandin E2 (PGE2) using a radioimmunoassay kit after conversion of PGE2 to its methyl oximate derivative according to the manufacturer's procedure.
For a test compound, the results were expressed as percent inhibition of PGE2 production relative to control incubations containing dimethyl sulfoxide vehicle. The data were analyzed by that a test compound at the indicated concentrations was changed log value and was applied simple linear regression. IC50 value was calculated by least squares method.

[1] = tested on: arthritic rats (adjuvant arthritis); test: Analgesic activity: effect on adjuvant arthritis in rats (Randall-Selitto pain threshold); type: in vivo, Lewis rats; settings: Rattus norvegicus, single dose, pain threshold of left hind paw 2 hrs after administration, threshold pressure of treated vs non-treated rats, ratio of 1.5 considered effective, read-out: The coefficient of analgesic

T1 sequence (P23219 24-599): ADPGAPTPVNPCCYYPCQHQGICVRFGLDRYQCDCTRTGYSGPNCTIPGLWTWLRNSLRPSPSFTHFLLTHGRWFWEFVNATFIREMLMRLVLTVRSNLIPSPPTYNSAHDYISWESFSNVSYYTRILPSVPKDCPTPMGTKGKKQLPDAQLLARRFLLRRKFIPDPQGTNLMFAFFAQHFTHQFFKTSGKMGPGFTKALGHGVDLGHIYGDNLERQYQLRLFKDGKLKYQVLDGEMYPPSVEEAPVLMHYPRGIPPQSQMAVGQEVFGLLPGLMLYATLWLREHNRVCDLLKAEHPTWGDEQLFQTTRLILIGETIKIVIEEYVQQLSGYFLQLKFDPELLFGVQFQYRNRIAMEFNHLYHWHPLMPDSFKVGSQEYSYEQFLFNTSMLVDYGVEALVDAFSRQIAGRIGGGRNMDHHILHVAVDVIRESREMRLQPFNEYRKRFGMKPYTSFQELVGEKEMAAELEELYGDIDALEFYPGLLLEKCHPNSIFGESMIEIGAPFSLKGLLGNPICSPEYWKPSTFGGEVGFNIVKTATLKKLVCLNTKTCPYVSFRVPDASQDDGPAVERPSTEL

## COc1ccc(-n2nc(Cl)cc2-c2ccc(OCCO)cc2)cc1 [Example 23, 2-{4-[3-Chloro-1-(4-methoxyphenyl)-1H-pyrazol-5-yl]-phenoxy}ethanol]
other
  melting point: 114.7 to 115.5 °C
COX-I
  IC50: < 10 nM
COX-II
  IC50: > 100 nM
[1]
  response vs control in vivo at 3.2 mg/kg: > 150%

## COc1ccc(-n2nc(C3CC3)cc2-c2ccc(OCCNC(N)=O)cc2)cc1 [Example 248]
other
  melting point: 150.8 to 151 °C
COX-I
  IC50: < 10 nM
COX-II
  IC50: > 100 nM
[1]
  response vs control in vivo at 3.2 mg/kg: ≥ 150%

## COc1ccc(C2N=C(C(F)F)C=C2c2ccc(OCCNC(N)=O)cc2)cc1 (centres unmarked) [Example 181]
COX-I
  IC50: < 10 nM
COX-II
  IC50: > 100 nM
[1]
  response vs control in vivo at 3.2 mg/kg: ≥ 150%

## COc1ccc(-n2nc(Cl)cc2-c2ccc(OCCNC(N)=O)cc2)cc1 [Example 28, N-(2-{4-[3-Chloro-1-(4-methoxyphenyl)-1H-pyrazol-5-yl]-phenoxy}ethyl)urea]
other
  melting point: 144.8 to 145.4 °C
COX-I
  IC50: < 10 nM
COX-II
  IC50: > 100 nM
[1]
  response vs control in vivo at 3.2 mg/kg: > 150%

## COc1ccc(-n2nc(C(F)F)cc2-c2ccc(OCCNC(N)=O)cc2)cn1 [Example 250]
other
  melting point: 141.5 to 142.1 °C
COX-I
  IC50: < 10 nM
COX-II
  IC50: > 100 nM
[1]
  response vs control in vivo at 3.2 mg/kg: ≥ 150%

## COc1ccc(-n2nc(C(F)(F)F)cc2-c2ccc(OCCNC(N)=O)cc2)cc1 [Example 240]
COX-I
  IC50: < 10 nM
COX-II
  IC50: > 100 nM
[1]
  response vs control in vivo at 3.2 mg/kg: ≥ 150%

## COc1ccc(-n2nc(C(F)(F)F)cc2-c2ccc(OCCNC(C)=O)cc2)cc1 [Example 254]
other
  melting point: 109.8 to 110.2 °C
COX-I
  IC50: < 10 nM
COX-II
  IC50: > 100 nM
[1]
  response vs control in vivo at 3.2 mg/kg: ≥ 150%

## COc1ccc(-n2nc(C(F)F)cc2-c2ccc(CNS(C)(=O)=O)cc2)cc1 [Example 61, N-{4-[3-(Difluoromethyl)-1-(4-methoxyphenyl)-1H-pyrazol-5-yl]benzyl}methanesulfonamide]
COX-I
  IC50: < 10 nM
COX-II
  IC50: > 100 nM
[1]
  response vs control in vivo at 3.2 mg/kg: > 150%
